# Measurements from patent US20240335547A1, “MODIFIED CHOLIC ACID CONJUGATES” (priority 2022, published 2024).
# What was measured:
# [1] = Histopathological studies (H&E staining, imaging) of lungs of infected and non-infected mice; format: in vivo, BALB/c mice
# Experimental: Group A: No infection, treated with PBS: Ten (10) BALB/c 6-weeks old female mice were used for this group. Mice were first anesthetized with isoflurane. Each mouse was intranasally treated with one dose of PBS (75 ul). Mice were sacrificed at 72 hrs, and 7 days post treatment. The lungs from these mice were collected for immunohistochemistry and cytokines analysis.
# Group B: No infection, treated with Compound 12: Twenty (20) BALB/c 6-weeks old female mice was used for this group. Mice were first anesthetized with isoflurane. Each mouse was intranasally treated with one dose of 0.5 mg of […] diluted in PBS (75 ul). Mice were sacrificed at 24 hrs, 48 hrs, 72 hrs, and 7 days post treatment. The lungs from these mice were collected for immunohistochemistry and cytokines analysis.
# (§1) Group C: Infection with 229E, treated with PBS: Thirty five (35) BALB/c 6-weeks old female mice were used for this group. Mice were first anesthetized with isoflurane. Each mouse was intranasally infected with 1×105 plaque forming unit (pfu) of HCoV-229E and then treated with PBS (75 ul) 24 hours later. Mice were sacrificed at 24 hrs post infection, and 24 hrs, 48 hrs, 72 hrs, 6 days, and 7 days post treatment. The lungs from these mice were collected for viral load, immunohistochemistry and cytokines analysis.
# (§2) Group D: Infection with 229E, treated with Compound 12: Forty Five (45) BALB/c 6-weeks old female mice were used for this group. Mice were first anesthetized with isoflurane. Each mouse was intranasally infected with 1×10^5 pfu of HCoV-229E and then treated with 0.5 mg of Compound 12 diluted in PBS (75 ul) 24 hours later. Mice from this group were sacrificed at 24 hrs, 48 hrs, 72 hrs, 6 days and 7 days post treatment. The lungs from these mice were collected for viral load, immunohistochemistry and cytokines analysis.
# [2] = target: 3CL Protease (SARS-COV-2) (Severe acute respiratory syndrome coronavirus 2, UniProt P0DTD1); assay: 3CL Protease (SARS-COV-2) Inhibitor Assay; format: biochemical
# Experimental: The compound is dissolved in DMSO. A series of dilutions were prepared with 5% DMSO in 3CL Protease assay buffer. 10 μl of the dilution was added to a 50 μl reaction so that the final concentration of DMSO is 1% in all of the reactions. The compound was pre-incubated in duplicate at room temperature for 30 minutes in a mixture containing 3CL Pro assay buffer, 3CL enzyme and a test compound. After 30 minutes, the enzymatic reactions were initiated by the addition of 3CL Protease substrate. The enzymatic reaction proceeded for 4 hours at room temperature. Fluorescence intensity was measured at an excitation of 360 nm and an emission of 460 nm using a Tecan Infinite M1000 microplate reader.
# [3] = tested on: MRSA; assay: Bactericidal activity MIC/MBC; format: cell-based; details: Staphylococcus aureus
# [4] = tested on: HCoV-229E; assay: In vivo viral load in mice lung tissue; set-up: species or system BALB/c mice; details: 2 days and 3 days post-treatment, versus control mice
# Experimental: FIG. 6 illustrates the in vivo viral load reduction in mice lung tissue administered Compound 12 compared to control mice that were not administered a compound of the disclosure. In the Group administered Compound 12, a substantial (30-200 fold) reduction of virus replication and production was recorded 2 days and 3 days post-treatment.
# as §1, §2
# [5] = tested on: TNF-α; assay: TNF-α production in HEK293 Cells; format: cell-based; details: 5 μg/ml
# Description: It was confirmed that Compound 12 stimulates TNF-α production in HEK293 Cells.
# [6] = in vitro; details: human
# [7] = Cytotoxicity in human primary cell cultures (Trypan Blue Staining); format: cell-based; details: human, CC50
# Experimental: (1) HFF (human foreskin fibroblast) cells (2×105) were seeded with 2 ml of DMEM medium supplemented with 10% FBS in each well of two 12-well tissue culture plates. (2) Cells were cultured for 3 days. CSA-44 was added to test for cell toxicity. Eleven concentrations were tested: 40 μg/ml, 30 μg/ml, […], 17.5 μg/ml, 15 μg/ml, 12.5 μg/ml, 10 μg/ml, 7.5 μg/ml, 5 μg/ml, 2.5 μg/ml, and 1 μg/ml. Samples with concentration of 0 μg/ml were used as the control. Each concentration was tested in duplicates with two wells. (3) Cells were cultured for 48 hours with CSA-44. Trypan Blue Staining was used to determine the numbers of living and dead cells on a hemocytometer. Percentages of living and dead cells in each sample were calculated.
# (1) HFF cells (2×105) were seeded with 2 ml of DMEM medium supplemented with 10% FBS in each well of two 12-well tissue culture plates. (2) Cells were cultured for 3 days. CMA Conjugate was added to test for cell toxicity. Eleven concentrations were tested. They were 100 μg/ml, 80 μg/ml, 60 μg/ml, 50 μg/ml, 40 μg/ml, 30 μg/ml, 25 μg/ml, 20 μg/ml, 15 μg/ml, 10 μg/ml, and 5 μg/ml. Samples with concentration of 0 μg/ml were used as the control. Each concentration was tested in duplicates with two wells. (3) Cells were cultured for 48 hours with CMA Conjugate. […] Percentages of living and dead cells in each sample were calculated.
# [8] = tested on: Golgi apparatus, mitochondria, and endoplasmic reticulum (ER); format: cell-based, human
# Description: The effect of compound 12 was studied on cellular structures and organelles such as Golgi apparatus, mitochondria, and endoplasmic reticulum (ER).
# [9] = tested on: Pseudomonas; assay: Bactericidal activity MIC/MBC; format: cell-based; details: Gram−
compound,measurement,setting,value
C[C@H](CCC(=O)NCCNC(=O)CCCC[C@@H]1SCC2NC(=O)NC21)C1CCC2C3C(C[C@H](OC(=O)CCN)[C@@]21C)[C@@]1(C)CC[C@@H](OC(=O)CCN)CC1C[C@H]3OC(=O)CCN (stereo partly shown) [Compound 12],effect on the morphology of the lung,"[1]; 3 days post treatment, 0.5 mg intranasally",does not cause significant detrimental effects
same,toxicity in vivo,[1]; dosage 0.5 mg/mice,does not exhibit significant toxicity in vivo
same,detection of compound in the lung tissues (staining and imaging),"[1]; intranasal, 0.5 mg",detected at 1-2 days post treatment but not in 3 days post treatment
same,IC50,[2],> 10 µM
same,% Activity,"[2]; 0.0003 μM, 2 repeats",101%
same,activity at 0.0003 µM,"[2]; 0.0003 μM, 2 repeats",99%
same,activity at 0.001 µM,"[2]; 0.001 μM, 2 repeats",103%
same,activity at 0.003 µM,"[2]; 0.003 μM, 2 repeats",103%
same,% Activity,"[2]; 0.01 μM, 2 repeats",100%
same,activity at 0.01 µM,"[2]; 0.01 μM, 2 repeats",96%
same,activity at 0.03 µM,"[2]; 0.03 μM, 2 repeats",95%
same,% Activity,"[2]; 0.1 μM, 2 repeats",89%
same,activity at 0.1 µM,"[2]; 0.1 μM, 2 repeats",90%
same,% Activity,"[2]; 0.3 μM, 2 repeats",88%
same,activity at 0.3 µM,"[2]; 0.3 μM, 2 repeats",91%
same,% Activity,"[2]; 1 μM, 2 repeats",89%
same,activity at 1 µM,"[2]; 1 μM, 2 repeats",90%
same,% Activity,"[2]; 3 μM, 2 repeats",79%
same,activity at 3 µM,"[2]; 3 μM, 2 repeats",82%
same,inhibition at 10 µM,[2]; 10 μM,24%
same,% Activity,"[2]; 10 μM, 2 repeats",77%
same,activity at 10 µM,"[2]; 10 μM, 2 repeats",75%
same,MBC,[3],1060 µg/mL
same,MIC,[3],530 µg/mL
same,reduction of virus replication and production,[4],30-200 fold
same,TNF-α generated,[5],"7,123 pg/ml"
same,CC50 at 3 days,[6],> 200 µM
same,CC50 at 48 h,[7],~65 µg/mL
same,effect on overall structure and organization of cellular structures and organelles,[8],did not affect the overall structure and organization
same,MBC,[9],1060 µg/mL
same,MIC,[9],530 µg/mL
